# Counter-ions that a name gives are not always drawn. Like-named read-outs stand apart in the source and are kept apart here.
# Legend:
# β-lactamase = target: T1, β-lactamase (Citrobacter freundii, UniProt P05193); assay: biochemical
# T1 construct: Various β-lactamases can be isolated from penicillin- or cephalosporin-resistant bacterial strains such as; endogenous in cells; host or cells: Citrobacter freundii 1203 (enzyme purified from the crude cell extract, after ampicillin induction when necessary)
# How it was run: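 β-lactamase from C. freundii 1203 crude extract (French press, 20 mM Tris-HCl pH 7.0) assayed with 0.1 mM nitrocefin in 50 mM phosphate pH 7.0 at 37° C, enzyme set to ΔA/min about 0.1, read at 482 nm. IC50 is inhibitor concentration giving 50% inhibition of nitrocefin cleavage, determined graphically.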
# Citrobacter freundii = assay: MIC in vitro of a 1:4 combination of ceftriaxone with a compound of formula I (test D); type: cell-based; conditions: 1:4 combination of ceftriaxone with the compound
# Protocol: D. Determination of the β-lactamase-inhibiting activity by combination of a compound of general formula I with ceftriaxone
# The minimum inhibitory concentration in vitro (MIC in μg/ml) of a 1:4 combination of ceftriaxone with a compound of formula I against Citrobacter freundii is measured and compiled in Table 2 hereinafter.
# [1] = IC 50 nM, isolated β-lactamase of Citrobacter freundii, substrate nitrocefin 0.1 mM, 15 minutes pre-incubation with inhibitor, 37° C., pH 7.0
# T1 sequence (P05193 21-381): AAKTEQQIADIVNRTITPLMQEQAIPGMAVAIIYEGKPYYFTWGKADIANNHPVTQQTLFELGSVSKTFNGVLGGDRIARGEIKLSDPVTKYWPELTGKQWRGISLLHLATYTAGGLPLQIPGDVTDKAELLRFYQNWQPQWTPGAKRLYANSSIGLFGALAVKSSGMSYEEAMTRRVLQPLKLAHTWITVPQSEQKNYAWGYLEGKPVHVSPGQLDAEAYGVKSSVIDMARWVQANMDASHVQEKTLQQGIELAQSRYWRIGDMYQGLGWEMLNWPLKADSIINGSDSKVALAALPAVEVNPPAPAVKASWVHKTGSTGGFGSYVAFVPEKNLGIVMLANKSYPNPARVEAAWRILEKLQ
Structure (SMILES),IC50 (β-lactamase; [1]),MIC (Citrobacter freundii),IC50 (β-lactamase)
"Nc1nc(CNC(=O)N2CC[C@@H]3[C@H]2C(=O)N3S(=O)(=O)[O-])cs1.[Na+] [17(ae), (1S,5R)-2-[2-Amino-thiazol-4-ylmethylcarbamoyl]-7-oxo-2,6-diazabicyclo[3.2.0]heptane-6-sulfonic acid sodium salt]",200 nM,1 µg/mL,
"O=C(NCc1nc(C2CC2)no1)N1CC[C@@H]2[C@H]1C(=O)N2S(=O)(=O)[O-].[Na+] [17(af), (1S,5R)-2-(3-Cyclopropyl-1,2,4-oxadiazol-5-ylmethylcarbamoyl)-7-oxo-2,6-diazabicyclo[3.2.0]heptane-6-sulfonic acid sodium salt]",107 nM,1 µg/mL,
"O=C1C[C@H](NC(=O)N2CC[C@@H]3[C@H]2C(=O)N3S(=O)(=O)[O-])C(=O)N1.[Na+] [17(ag), (1S,5R)-7-Oxo-2-[(S)-2,5-dioxo-pyrrolidin-3-ylcarbamoyl]-2,6-diazabicyclo[3.2.0]heptane-6-sulfonic acid sodium salt]",337 nM,1 µg/mL,
"O=C(NCCc1ccccn1)N1CC[C@@H]2[C@H]1C(=O)N2S(=O)(=O)[O-].[Na+] [17(b), (1S,5R)-7-Oxo-2-[2-(pyridin-2-yl)ethylcarbamoyl]-2,6-diazabicyclo[3.2.0]heptane-6-sulphonic acid sodium salt]",285 nM,2 µg/mL,
"O=C(NCc1ccccn1)N1CC[C@@H]2[C@H]1C(=O)N2S(=O)(=O)[O-].[Na+] [17(c), (1S,5R)-7-Oxo-2-[(2-pyridylmethyl)carbamoyl]-2,6-diazabicyclo[3.2.0]heptane-6-sulphonic acid sodium salt]",400 nM,2 µg/mL,
"O=C(NNc1ccccc1)N1CC[C@@H]2[C@H]1C(=O)N2S(=O)(=O)O [17(d), (1S,5R)-7-Oxo-2-(2-phenyl-carbazoyl)-2,6-diazabicyclo[3.2.0]heptane-6-sulphonic acid sodium salt]",197 nM,2 µg/mL,
"O=C(NCc1ccc(O)c(O)c1)N1CC[C@@H]2[C@H]1C(=O)N2S(=O)(=O)[O-].[Na+] [17(e), (1S,5R)-2-(3,4-Dihydroxybenzylcarbamoyl)-7-oxo-2,6-diazabicyclo[3.2.0]heptane-6-sulphonic acid sodium salt]",250 nM,2 µg/mL,
"Cc1nnc(O)c(CNC(=O)N2CC[C@@H]3[C@H]2C(=O)N3S(=O)(=O)O)c1C [17(f), (1S,5R)-2-(3-Hydroxy-5,6-dimethyl-pyridazin-4-yl-methylcarbamoyl)-7-oxo-2,6-diazabicyclo[3.2.0]heptane-6-sulphonic acid sodium salt]",193 nM,2 µg/mL,
"NS(=O)(=O)c1ccc(CNC(=O)N2CC[C@@H]3[C@H]2C(=O)N3S(=O)(=O)[O-])cc1.[Na+] [17(g), (1S,5R)-7-Oxo-2-(4-sulphamoyl-benzylcarbamoyl)-2,6-diazabicyclo[3.2.0]heptane-6-sulphonic acid sodium salt]",427 nM,2 µg/mL,
"O=C(NCCc1ccc(O)c(O)c1)N1CC[C@@H]2[C@H]1C(=O)N2S(=O)(=O)[O-].[Na+] [17(k), (1S,5R)-2-[2-(3,4-Dihydroxyphenyl)ethylcarbamoyl]-7-oxo-2,6-diazabicyclo[3.2.0]heptane-6-sulphonic acid sodium salt]",109 nM,16 µg/mL,
"COc1ccc(NC(=O)N2CC[C@@H]3[C@H]2C(=O)N3S(=O)(=O)[O-])cc1.[Na+] [17(l), (1S,5R)-2-(4-Methoxyphenylcarbamoyl)-7-oxo-2,6-diazabicyclo[3.2.0]heptane-6-sulphonic acid sodium salt]",437 nM,4 µg/mL,
"O=C(NCC1CCCCC1)N1CC[C@@H]2[C@H]1C(=O)N2S(=O)(=O)[O-].[Na+] [17(m), (1S,5R)-2-Cyclohexylmethylcarbamoyl-7-oxo-2,6-diazabicyclo[3.2.0]heptane-6-sulphonic acid sodium salt]",359 nM,16 µg/mL,
"O=C(OCc1cccs1)N1CC[C@@H]2[C@H]1C(=O)N2S(=O)(=O)[O-].[Na+] [17(n), (1S,5R)-7-Oxo-2-(thien-2-yl-methoxycarbonyl)-2,6-diazabicyclo[3.2.0]heptane-6-sulphonic acid sodium salt]",272 nM,16 µg/mL,
"O=C1SCC[C@H]1NC(=O)N1CC[C@@H]2[C@H]1C(=O)N2S(=O)(=O)O [17(u), (1S,5R)-7-Oxo-2-(R)-(2-oxo-3-tetrahydrothienyl-carbamoyl)-2,6-diazabicyclo[3.2.0]heptane-6-sulphonic acid sodium salt]",,2 µg/mL,62 nM
"Cn1nnnc1CNC(=O)N1CC[C@@H]2[C@H]1C(=O)N2S(=O)(=O)[O-].[Na+] [17(z), (1S,5R) -2-[1-Methyl-1H-tetrazol-5-ylmethylcarbamoyl]-7-oxo-2,6-diazabicyclo[3.2.0]heptane-6-sulfonic acid sodium salt]",98 nM,1 µg/mL,
"Cc1cc(=O)oc2cc(OCC(=O)N3CC[C@@H]4[C@H]3C(=O)N4S(=O)(=O)[O-])ccc12.[Na+] [23(a), (1S,5R)-2-(4-Methyl-2-oxo-2H-benzopyran-7-yloxyacetyl)-7-oxo-2,6-diazabicyclo[3.2.0]heptane-6-sulfonic acid sodium salt]",97 nM,16 µg/mL,
"Cn1cnnc1SCC(=O)N1CC[C@@H]2[C@H]1C(=O)N2S(=O)(=O)[O-].[Na+] [23(b), (1S,5R)-2-(4-Methyl-4H-1,2,4-triazol-3-ylsulfanylacetyl)-7-oxo-2,6-diazabicyclo[3.2.0]heptane-6-sulfonic acid sodium salt]",50 nM,0.5 µg/mL,
"Cn1cccc1/C=C/C(=O)N1CC[C@@H]2[C@H]1C(=O)N2S(=O)(=O)[O-].[Na+] [23(c), (1S,5R)-2-[(E)-3-(1-Methyl-pyrrol-2-yl)acryloyl]-7-oxo-2,6-diazabicyclo[3.2.0]heptane-6-sulfonic acid sodium salt]",420 nM,8 µg/mL,
"Cn1ccnc1SCC(=O)N1CC[C@@H]2[C@H]1C(=O)N2S(=O)(=O)[O-].[Na+] [23(d), (1S,5R)-2-(1-Methyl-imidazol-2-ylsulfanylacetyl)-7-oxo-2,6-diazabicyclo[3.2.0]heptane-6-sulfonic acid sodium salt]",283 nM,1 µg/mL,
"O=C(/C=C/c1cc[nH]n1)N1CC[C@@H]2[C@H]1C(=O)N2S(=O)(=O)[O-].[Na+] [23(e), (1S,5R)-7-Oxo-2-[(E)-3-pyrazol-3-yl-acryloyl]-2,6-diazabicyclo[3.2.0]heptane-6-sulfonic acid sodium salt]",138 nM,1 µg/mL,
"O=C(CNc1cc[nH]c(=O)n1)N1CC[C@@H]2[C@H]1C(=O)N2S(=O)(=O)O [23(f), (1S,5R)-7-Oxo-(2-oxo-1,2-dihydro-pyrimidin-4-ylaminoacctyl)-2,6-diazabicyclo[3.2.0]heptane-6-sulfonic acid sodium salt]",,0.5 µg/mL,30 nM
"Nc1nc(SCC(=O)N2CC[C@@H]3[C@H]2C(=O)N3S(=O)(=O)[O-])n(C(=O)OCc2ccccc2)n1.[Na+] [23(g), (1S,5R)-2-(5-Amino-2-benzyloxycarbonyl-2H-1,2,4-triazol-3-ylsulfanyl-acetyl)-7-oxo-2,6-diazabicyclo[3.2.0]heptane-6-sulfonic acid sodium salt]",280 nM,2 µg/mL,
"CC(C)=C[C@@H]1[C@@H](C(=O)N2CC[C@@H]3[C@H]2C(=O)N3S(=O)(=O)[O-])C1(C)C.[Na+] [23(h), (1S,5R)-2-[(1R,3R)-2,2-Dimethyl-3-(2-methyl-propenyl)-cyclopropylcarbonyl]7-oxo-2,6-diazabicyclo[3.2.0]heptane-6-sulfonic acid sodium salt]",920 nM,16 µg/mL,
"O=C(Nc1nnc(SCC(=O)N2CC[C@@H]3[C@H]2C(=O)N3S(=O)(=O)[O-])s1)OCc1ccccc1.[Na+] [23(i), (1S,5R)-2-(5-Benzyloxycarbonylamino-1,3,4-thiadiazol-2-ylsulfanyl-acetyl)-7-oxo-2,6-diazabicyclo[3.2.0]heptane-6-sulfonic acid sodium salt]",70 nM,1 µg/mL,
"O=C(C=Cc1cncn1S(=O)(=O)[O-])N1CC[C@@H]2[C@H]1C(=O)N2S(=O)(=O)[O-].[Na+].[Na+] [23(l), (1S,5R)-7-Oxo-2-[3-(1-sulfo-imidazol-5-yl)acryloyl]-2,6-diazabicyclo[3.2.0]heptane-6-sulfonic acid sodium salt]",5 nM,2 µg/mL,
"O=C(OCc1ccccc1)N1CC[C@@H]2[C@H]1C(=O)N2S(=O)(=O)O [Example 1(a), Benzyl (1S,5)-7-oxo-6-sulpho-2,6-diazabicyclo[3.2.0]heptane 2-carboxylate sodium salt]",,8 µg/mL,100 nM
"O=C(Nc1ccccc1)N1CC[C@@H]2[C@H]1C(=O)N2S(=O)(=O)[O-].[Na+] [Example 2, (1S,5R)-7-Oxo-2-(phenylcarbamoyl)-2,6-diazabicyclo[3.2.0]heptane-6-sulphonic acid sodium salt]",220 nM,2 µg/mL,
"O=C(NCc1ccccc1)N1CC[C@@H]2[C@H]1C(=O)N2S(=O)(=O)O [Example 3, (1S,5R)-2-(Benzylcarbamoyl)-7-oxo-2,6-diazabicyclo[3.2.0]heptane-6-sulphonic acid sodium salt]",330 nM,2 µg/mL,

# Reference: patent US6566355B1 (Hoffmann-La Roche Inc., priority 1991, dated 2003)
